Data reported in US8574831B2, “Mutational profiles in HIV-1 reverse transcriptase correlated with phenotypic drug resistance” (Virco N.V., priority 2000, dated 2013).
Marks after values point to notes of the source that are not given here.

How the values were obtained:
Type in all cases: cell-based
[1] = test system: HIV-1 HXB2 mutants with site-directed mutations in RT; experiment: Recombinant virus assay, drug susceptibility of mutants with site-directed RT mutations (Example 1); details: for Fold resistance: standard error in parentheses
Description: Plasma samples were obtained from HIV-1-infected individuals from routine clinical practice in Europe and the US and were shipped to the laboratory on dry ice and stored at −70° C. until analysis. Phenotypic analysis was performed using the recombinant virus assay. See Kellam, P., and B. A. Larder. Antimicrob. Agents Chemother. 38:23-30 (1994); Hertogs, K., et al., Antimicrob. Agents Chemother. 42:269-276 (1998); Briefly, protease (PR) and reverse transcriptase (RT) coding sequences were amplified from patient-derived viral RNA with HIV-1 specific primers. After homologous recombination of amplicons into a PR-RT deleted proviral clone, the resulting recombinant viruses were harvested, titrated and used for in vitro susceptibility testing to antiretroviral drugs.
For the modeling studies, mutations were generated in the RT gene of HXB2, a wild-type laboratory HIV-1 strain, using the QuikChange^J Site-Directed Mutagenesis Kit, […]^7, Stratagene Cloning systems, La Jolla, Calif., USA.

[2] = test system: patient-derived recombinant HIV-1 variants (protease/RT from patient plasma); experiment: Recombinant virus assay (ANTIVIROGRAM), MT-4 cell viral cytopathic effect (CPE) protection assay, patient-derived recombinant viruses (Example 2); details: for level of resistance: samples with AZT and 3TC resistance mutations plus T69A/N or V175M
Description: FIG. 1: Nucleoside analogue susceptibility of MDIR patient-derived recombinant HIV variants. Recombinant viruses were produced from patient plasma samples as described in Example 2 and tested for susceptibility to (a) d4T, (b) ddC and (c) ddl. […] Error bars indicate standard errors. Note that the total number (n=310) is higher than the 302 MDR samples described because a small minority were 69D/N and 75M double mutants and are represented in both groups.
Viral RNA was extracted from 200 μL patient plasma using the QIAAMPV® Viral RNA Extraction Kit (Qiagen, Hilden, Germany), according to the manufacturers instructions. cDNA encompassing part of the pol gene was produced using EXPAND™ reverse transcriptase (Boehringer Mannheim) as described previously. See Hertogs K., et al., Antimicrob. Agents Chemother. 42:269-276 (1998). A 2.2 kb fragment encoding the protease and RT regions was then amplified by nested polymerase chain reaction (PCR) using PCR primers and conditions as described. Id. This genetic material was subsequently used in both phenotyping and genotyping experiments.
MT-4 cells (Harada S., et al, Science 229:563-566(1985).) were co-transfected with pol gene PCR fragments and the protease-RT deleted HIV-1 molecular clone, pGEM3deltaPRT, as described. See Hertogs K., et al., Antimicrob. Agents Chemother. 42:269-276 (1998). […] Phenotypic susceptibility to nucleoside analogues was determined using an MT-4 cell viral cytopathic effect (CPE) protection assay as described. Id. Fold resistance values were derived by dividing the mean IC50 for a patient's recombinant virus by the mean IC50 for wild-type control virus (strain HXB2-D). The PCR products obtained from patient plasma samples were genotyped by dideoxynucleotide-based sequence analysis. Samples were sequenced using the BIGDYE™ terminator kit (Applied Biosystems, Inc. (ABI)) and resolved on an ABI 377 DNA sequencer.
From this analysis, 302 samples were identified with four-fold or greater increases in IC50 (relative to a wild-type control virus) to at least four of these inhibitors. […]

[3] = test system: HIV-1 HXB2-D variants with site-directed RT mutations; experiment: MT-4 cell CPE protection assay, HIV-1 variants constructed by site-directed mutagenesis (Example 2); details: for susceptibility: 69S-[S-S] insert plus AZT resistance mutations (210W and 215Y); for resistance: T69A or V75M in a background of AZT mutations
Description: Mutations in the RT coding region were created by site-directed mutagenesis of a wild-type HXB2-D EcoRl-Pstl restriction enzyme fragment, encompassing the HIV-1 pol gene and cloned into pGEM3 (Promega). Single and multiple nucleotide changes were introduced into RT using the EXSITE™ mutagenesis kit (Strategene). All mutant clones were verified by DNA sequence analysis of the entire RT. PCR fragments were prepared from the mutated clones and the altered RT coding regions were transferred into the HIV-1 HXB2-D genetic background by homologous recombination as described above. The susceptibility of these recombinant viruses to nucleoside analogues was subsequently determined by the MT-4 cell CPE protection assay. Id.

`Nc1ccn([C@@H]2CS[C@H](CO)O2)c(=O)n1` [3TC, lamivudine] was tested, and the Fold resistance ([1]; SDM05: 41L, 210W, 211K, 214F, 215Y) was 4 (0.3)^c fold, the Fold resistance ([1]; SDM18: 41L, 67N, 210W, 211K, 214F, 215Y) was 2 (0.6) fold and the Fold resistance ([1]; SDM19: 41L, 67N, 69D, 210W, 211K, 214F, 215Y) was 4 (0.7) fold. For the same compound, the Fold resistance ([1]; SDM22: 184V, 41L, 210W, 211K, 214F, 215Y) was 78 (16.3) fold, the Fold resistance ([1]; SDM23: 184V) was 82 (13.6) fold and the Fold resistance ([1]; SDM24: 184V, 69S-S-S, 210W, 211K, 214D, 215Y) was 85 (14.2) fold. The Fold resistance ([1]; SDM26: 184V, 41L, 67N, 210W, 211K, 214F, 215Y) was 72 (13.8) fold, the Fold resistance ([1]; SDM28: 44D) was 1 (0.1) fold and the Fold resistance ([1]; SDM29: 1181) was 2 (0.2) fold. The Fold resistance ([1]; SDM30: 44D, 1181) was 3 (0.3) fold, the Fold resistance ([1]; SDM31: 44D, 41L, 67N, 210W, 211K, 214F, 215Y) was 22 (2.5) fold and the Fold resistance ([1]; SDM32: 44D, 41L, 67N, 69D, 210W, 211K, 214F, 215Y) was 8 (2.2) fold. For the same compound, the Fold resistance ([1]; SDM33: 1181, 41L, 67N, 210W, 211K, 214F, 215Y) was 7 (1.0) fold, the Fold resistance ([1]; SDM34: 1181, 41L, 67N, 69D, 210W, 211K, 214F, 215Y) was 32 (3.9) fold and the Fold resistance ([1]; SDM35: 44D, 1181, 41L, 67N, 210W, 211K, 214F, 215Y) was 14 (1.4) fold. For the same compound, the Fold resistance ([1]; SDM36: 44D, 1181, 41L, 67N, 69D, 210W, 211K, 214D, 215Y) was 15 (2.1) fold, the Fold resistance ([1]; SDM38: 184V, 44D, 1181, 41L, 67N, 210W, 211K, 214F, 215Y) was 82 (13.5) fold and the Fold resistance ([1]; SDM39: 184V, 44D, 1181, 41L, 67N, 69D, 210W, 211K, 214F, 215Y) was 84 (13.9) fold. For the same compound, the high resistance ([1]; caused by mutation 184V) was > 62 fold and the “mean fold increase in IC50” value ([2]; all four MDR groups (151 cluster, 69D/N, 75M, codon 69 insertions)) was > 30 fold.

In the case of `Cc1cn([C@H]2C=C[C@@H](CO)O2)c(=O)[nH]c1=O` [d4T, stavudine], the “level of resistance” value [2] is reported as “only modest levels of resistance”, the “susceptibility” value [3] is reported as “decreased susceptibility” and the “resistance” value [3] is reported as “little or no resistance”.

With `Nc1ccn([C@H]2CC[C@@H](CO)O2)c(=O)n1` [ddC, zalcitabine] the “level of resistance” value [2] was “only modest levels of resistance”, the “susceptibility” value [3] was “decreased susceptibility” and the “resistance” value [3] was “little or no resistance”.
